Laboratory results as given in ChEMBL document CHEMBL1201862, “PubChem BioAssay data set” (2004).
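Cells were grown in 96-well plates and exposed to each compound for 48 hours at five concentrations; endpoints were interpolated linearly between bracketing concentrations, or set to the highest concentration if not reached. GI50 = concentration required for 50% inhibition of growth.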 Active and inactive are the calls of the source. Rule as the data show it: active = GI50 up to about 1.1 µM and inactive = higher.

Assays:
Test in all cases: NCI anticancer screen, dose series, 48 h
RPMI-8226 = tested on: RPMI-8226
BT-549 = tested on: BT-549
COLO 205 = tested on: COLO 205
LOX IMVI = tested on: LOX IMVI
IGROV-1 = tested on: IGROV-1
M14 = tested on: M14
ACHN = tested on: ACHN
KM12 = tested on: KM12
786-0 = tested on: 786-0
MCF7 = tested on: MCF7
NCI-H460 = tested on: NCI-H460
HOP-62 = tested on: HOP-62
HL-60 = tested on: HL-60
SK-MEL-28 = tested on: SK-MEL-28
UO-31 = tested on: UO-31
M19-MEL = tested on: M19-MEL
SW-620 = tested on: SW-620
OVCAR-8 = tested on: OVCAR-8
SK-MEL-5 = tested on: SK-MEL-5
T47D = tested on: T47D

Compound | GI50 (RPMI-8226) | GI50 (BT-549) | GI50 (COLO 205) | GI50 (LOX IMVI) | GI50 (IGROV-1) | GI50 (M14) | GI50 (ACHN) | GI50 (KM12) | GI50 (786-0) | GI50 (MCF7) | GI50 (NCI-H460) | GI50 (HOP-62) | GI50 (HL-60) | GI50 (SK-MEL-28) | GI50 (UO-31) | GI50 (M19-MEL) | GI50 (SW-620) | GI50 (OVCAR-8) | GI50 (SK-MEL-5) | GI50 (T47D)
COc1cc(-c2[nH]ccc2Cl)oc1C1=C2N=C3C=C2C(C(C)C)C1CCCCCCCC3 (stereo not given) | 0.339 µM (active) | 1.1 µM (active) | 0.566 µM (active) | 0.167 µM (active) | 0.993 µM (active) | 0.438 µM (active) | 0.971 µM (active) | 0.476 µM (active) | 0.449 µM (active) | 0.603 µM (active) | 0.319 µM (active) | 0.774 µM (active) | 0.299 µM (active) | 1.35 µM (inactive) | 1.03 µM (active) | 0.603 µM (active) | 0.386 µM (active) | 0.805 µM (active) | 0.321 µM (active) | 0.272 µM (active)
O=c1c(NO)c([N+](=O)[O-])cnn1-c1ccccc1 | 4.93 µM (inactive) | 1.58 µM (inactive) | 3.62 µM (inactive) | 1.79 µM (inactive) | 21.1 µM (inactive) | 1.99 µM (inactive) | 8.53 µM (inactive) | 9.62 µM (inactive) | 6.07 µM (inactive) | 2.55 µM (inactive) | 4.88 µM (inactive) | 8.83 µM (inactive) | 0.789 µM (active) | 3.43 µM (inactive) | 5.27 µM (inactive) | 3.67 µM (inactive) | 1.75 µM (inactive) | 2.63 µM (inactive) | 6 µM (inactive) | 1.83 µM (inactive)
